Data from PubChem BioAssay (NCI).
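Where inhibition never reached the appropriate level, the endpoint shown equals the highest concentration tested. Otherwise, values were interpolated linearly from a five-concentration, 48-hour dose response in 96-well plates. Here, GI50 denotes the concentration required for 50% inhibition of growth. TGI is the concentration that stops growth completely.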

What was measured:
Assay in all cases: growth of human tumour cells (NCI), 48 h
M14 melanoma = test system: M14 melanoma
OVCAR-5 ovarian = test system: OVCAR-5 ovarian
SNB-19 CNS = test system: SNB-19 CNS
SK-MEL-2 melanoma = test system: SK-MEL-2 melanoma
SK-MEL-28 melanoma = test system: SK-MEL-28 melanoma
786-0 renal = test system: 786-0 renal
SK-OV-3 ovarian = test system: SK-OV-3 ovarian
HOP-62 NSCLC = test system: HOP-62 NSCLC
MDA-MB-435 = test system: MDA-MB-435
BT-549 breast = test system: BT-549 breast

Compound	TGI (M14 melanoma)	TGI (OVCAR-5 ovarian)	TGI (SNB-19 CNS)	TGI (SK-MEL-2 melanoma)	TGI (SK-MEL-28 melanoma)	TGI (786-0 renal)	TGI (SK-OV-3 ovarian)	TGI (HOP-62 NSCLC)	GI50 (M14 melanoma)	GI50 (OVCAR-5 ovarian)	GI50 (MDA-MB-435)	TGI (MDA-MB-435)	GI50 (SK-OV-3 ovarian)	GI50 (SNB-19 CNS)	GI50 (SK-MEL-2 melanoma)	GI50 (SK-MEL-28 melanoma)	GI50 (786-0 renal)	GI50 (HOP-62 NSCLC)	GI50 (BT-549 breast)	TGI (BT-549 breast)
O=C1c2cccc([N+](=O)[O-])c2C(=O)c2nccnc21	2.96 µM	9.6 µM	4.04 µM	2.9 µM	3.01 µM	3.2 µM	–	–	–	–	–	–	–	–	–	–	–	–	–	–
O=C(CN(Cc1ccccc1)Cc1ccccc1)N1CCc2c([nH]c3ccccc23)C1c1cccnc1 (stereo unspecified)	14.2 µM	34.7 µM	> 100 µM	–	> 100 µM	33.4 µM	> 100 µM	> 100 µM	–	–	–	–	–	–	–	–	–	–	–	–
[N-]=[N+]=NCCCn1c2c(c3ccc([N+](=O)[O-])cc3c1=O)C(=O)c1cc(I)ccc1-2	22.4 µM	> 100 µM	> 100 µM	> 100 µM	> 100 µM	16 µM	8.74 µM	38.8 µM	3.29 µM	41.2 µM	34.3 µM	> 100 µM	2.11 µM	4.62 µM	71.2 µM	41.5 µM	3.17 µM	1.82 µM	–	–
CN1C(c2ccccc2)CC(C)(O)CC1c1ccccc1 (stereo unspecified)	> 100 µM	> 100 µM	> 100 µM	> 100 µM	> 100 µM	> 100 µM	> 100 µM	> 100 µM	–	–	–	–	–	–	–	–	–	–	–	–
COc1ccc(C2CC(c3ccccc3)=NN2C(=O)c2cc(OC)c(OC)c(OC)c2)cc1O (stereo unspecified)	3.99 µM	> 65.5 µM	> 100 µM	> 42 µM	> 47.6 µM	3.86 µM	16.6 µM	5.21 µM	0.299 µM	8.43 µM	–	–	0.414 µM	0.645 µM	4.74 µM	0.597 µM	0.301 µM	0.397 µM	2 µM	21.4 µM
Cc1ccccc1C=NC12CC3CC(CC(C3)C1)C2	> 100 µM	> 100 µM	> 100 µM	> 100 µM	> 100 µM	> 100 µM	> 100 µM	> 100 µM	–	–	–	–	–	–	–	–	–	–	–	–
CCC1=C[C@@H]2CN(C1)Cc1c([nH]c3ccccc13)[C@@](C(=O)OC)(c1cc3c(cc1OC)N(C)[C@H]1[C@@](O)(C(=O)OC)[C@H](OC(C)=O)[C@]4(CC)C=CCN5CC[C@]31[C@@H]54)C2	1.01 µM	27.2 µM	18.9 µM	9.23 µM	18.2 µM	13 µM	2.02 µM	24.4 µM	0.0103 µM	< 0.01 µM	–	–	< 0.01 µM	< 0.01 µM	0.727 µM	< 0.01 µM	< 0.0205 µM	< 0.0148 µM	< 0.0107 µM	8.82 µM
Cc1cc(Cl)ccc1NC(=O)CC1SC(=NC(=O)c2ccccc2Cl)NC1=O (stereo unspecified)	32 µM	84 µM	> 100 µM	71.1 µM	44.8 µM	35.7 µM	–	–	–	–	–	–	–	–	–	–	–	–	–	–
CC[O-].CC[O-].COc1ccc(C(=O)[CH-]C(C)=O)cc1OC.COc1ccc(C(=O)[CH-]C(C)=O)cc1OC.[Ti+4]	> 100 µM	> 100 µM	> 100 µM	> 100 µM	> 100 µM	> 100 µM	–	> 100 µM	83.8 µM	53.8 µM	–	–	–	73 µM	78.3 µM	> 100 µM	48 µM	46.2 µM	–	–
Cc1cc2c(C(=O)NCC#N)cccc2n1-c1nc2c(c(NCc3ccccc3)n1)CCCC2	0.532 µM	1.94 µM	2.91 µM	0.644 µM	1.86 µM	1.39 µM	2.78 µM	–	0.22 µM	0.395 µM	0.249 µM	0.809 µM	0.431 µM	0.499 µM	0.231 µM	0.406 µM	0.382 µM	–	0.251 µM	0.7 µM
CCc1cccc(C)c1N1C(=O)C(=O)C(c2nc3ccccc3o2)/C(=N/NC(=S)NN)C1=O (stereo unspecified)	> 100 µM	> 100 µM	> 100 µM	> 100 µM	> 100 µM	> 100 µM	> 100 µM	> 100 µM	–	–	–	–	–	–	–	–	–	–	–	–
O=CC1CCC=CC1NC(=O)OCc1ccccc1 (stereo unspecified)	> 100 µM	> 100 µM	–	> 100 µM	> 100 µM	> 100 µM	> 100 µM	> 100 µM	–	–	–	–	–	–	–	–	–	–	–	–
N#CC(C(=O)/C(=N/NC(=O)c1ccccc1O)C(C#N)c1ccc(Br)cc1)c1ccc(Br)cc1 (stereo unspecified)	29 µM	29.1 µM	24.3 µM	25 µM	28.2 µM	27 µM	> 100 µM	29.5 µM	–	–	–	–	–	–	–	–	–	–	–	–
O=C1Nc2ccc(O)cc2/C1=C\c1ccncc1	39.6 µM	57 µM	59 µM	43.1 µM	–	39 µM	> 100 µM	56.4 µM	15.8 µM	27.2 µM	18.2 µM	71 µM	58.9 µM	21.2 µM	14.5 µM	–	18.5 µM	23.9 µM	15.2 µM	43.6 µM
CCOC(=O)NC(=O)c1cn(CCCCCCCCCCC(=O)NCCCN2CCN(CCCNC(=O)CCCCCCCCCCn3cc(C(=O)NC(=O)OCC)c(=O)[nH]c3=O)CC2)c(=O)[nH]c1=O	> 10 µM	> 100 µM	> 100 µM	> 100 µM	> 100 µM	> 100 µM	> 100 µM	> 10 µM	–	–	–	–	–	–	–	–	–	–	–	–
O=c1c2cccc(F)c2sc2c(NCCCNCCO)nc3ccccc3c12	2.98 µM	3.07 µM	3.17 µM	3.95 µM	3.31 µM	2.84 µM	–	3.59 µM	1.53 µM	1.65 µM	1.63 µM	3 µM	–	1.65 µM	1.97 µM	1.86 µM	1.44 µM	1.54 µM	6.16 µM	19.8 µM
O=C(Nc1ccccc1)n1cc(-c2ccccn2)c(N2CCOCC2)n1	> 100 µM	–	> 100 µM	–	–	74.7 µM	> 100 µM	> 100 µM	–	–	–	–	–	–	–	–	–	–	–	–
O=C(CCC(=O)Nc1ccc(Cl)cc1)CC(=O)c1ccc2ccccc2c1	> 100 µM	> 100 µM	> 100 µM	> 100 µM	> 100 µM	> 100 µM	> 100 µM	> 100 µM	–	–	–	–	–	–	–	–	–	–	–	–
